In brackets after ≈: the same amount, converted by molar mass.
Legend:
Assay in all cases: MIC, microdilution broth method (NCCLS)
Assay type in all cases: cell-based
Conditions in all cases: 35° C., 16-20 hours
S. aureus ATCC29213 = system: S. aureus ATCC29213
Description: (§1) Minimal inhibitory concentration (MIC) has been an indicator of in vitro antibacterial activity widely used in the art. The in vitro antimicrobial activity of the compounds was determined by the microdilution broth method following the test method from the National Committee for Clinical Laboratory Standards (NCCLS). This method is described in the NCCLS Document M7-A4, Vol.17, No.2, “Methods for Dilution Antimicrobial Susceptibility Test for Bacteria that Grow Aerobically—Fourth Edition”, which is incorporated herein by reference.
(§2) In this method two-fold serial dilutions of drug in cation adjusted Mueller-Hinton broth are added to wells in microdilution trays. The test organisms are prepared by adjusting the turbidity of actively growing broth cultures so that the final concentration of test organism after it is added to the wells is approximately 5×10^4 CFU/well.
(§3) Following inoculation of the microdilution trays, the trays are incubated at 35° C. for 16-20 hours and then read. […] The amount of growth in the wells containing the test compound is compared with the amount of growth in the growth-control wells (no test compound) used in each tray. As set forth in Table 1, compounds of the present invention were tested against a variety of Gram positive and Gram negative pathogenic bacteria resulting in a range of activities depending on the organism tested.

E. faecalis ATCC29212 = system: E. faecalis ATCC29212
Description: as §1, §2, §3

S. pneumoniae ATCC49619 = system: S. pneumoniae ATCC49619
Description: as §1, §2, §3

H. influenzae ATCC49247 = system: H. influenzae ATCC49247
Description: as §1, §2, §3

SMILES	MIC (B: S. aureus ATCC29213) (S. aureus ATCC29213) [µg/mL]	MIC (C: E. faecalis ATCC29212) (E. faecalis ATCC29212) [µg/mL]	MIC (D: S. pneumoniae ATCC49619) (S. pneumoniae ATCC49619)	MIC (E: H. influenzae ATCC49247) (H. influenzae ATCC49247) [µg/mL]
CCC1OC(=O)C(C)C(=O)C(C)C(OC2OC(C)CC(N(C)C)C2O)C(C)(OC(=O)OCC=Cc2cn(-c3ncccn3)cn2)CC(C)C(=O)C(C)C2NC(=O)OC12C (stereo not shown) [Compound 34]	0.25 (≈ 0.302 µM)	0.12 (≈ 0.145 µM)	0.03 µg/mL (≈ 0.0363 µM)	1 (≈ 1.21 µM)
CCC1OC(=O)C(C)C(=O)C(C)C(OC2OC(C)CC(N(C)C)C2O)C(C)(OC(=O)OCC=Cc2cn(-c3cnccn3)cn2)CC(C)C(=O)C(C)C2NC(=O)OC12C (stereo not shown) [Compound 35]	0.25 (≈ 0.302 µM)	0.12 (≈ 0.145 µM)	0.03 µg/mL (≈ 0.0363 µM)	1 (≈ 1.21 µM)
CCC1OC(=O)C(C)C(=O)C(C)C(OC2OC(C)CC(N(C)C)C2O)C(C)(OC(=O)OCC=Cc2cnc3ccccc3c2)CC(C)C(=O)C(C)C2NC(=O)OC12C (stereo not shown) [Compound 37]	0.12 (≈ 0.148 µM)	0.06 (≈ 0.0741 µM)	≦0.015 μg/mL	0.5 (≈ 0.617 µM)
CCC1OC(=O)C(C)C(=O)C(C)C(OC2OC(C)CC(N(C)C)C2O)C(C)(OC(=O)OCC=Cc2ccc(-c3ncco3)cc2)CC(C)C(=O)C(C)C2NC(=O)OC12C (stereo not shown) [Compound 47]	0.12 (≈ 0.145 µM)	0.06 (≈ 0.0726 µM)	≦0.015 μg/mL	0.5 (≈ 0.605 µM)
CCC1OC(=O)C(C)C(=O)C(C)C(OC2OC(C)CC(N(C)C)C2O)C(C)(OC(=O)OCC=Cc2ccc(-c3cnco3)cc2)CC(C)C(=O)C(C)C2NC(=O)OC12C (stereo not shown) [Compound 48]	0.12 (≈ 0.145 µM)	0.12 (≈ 0.145 µM)	0.03 µg/mL (≈ 0.0363 µM)	1 (≈ 1.21 µM)
CCC1OC(=O)C(C)C(=O)C(C)C(OC2OC(C)CC(N(C)C)C2O)C(C)(OC(=O)OCC=Cc2ccc(-c3nccs3)cc2)CC(C)C(=O)C(C)C2NC(=O)OC12C (stereo not shown) [Compound 49]	0.12 (≈ 0.143 µM)	0.12 (≈ 0.143 µM)	0.03 µg/mL (≈ 0.0356 µM)	1 (≈ 1.19 µM)
CCC1OC(=O)C(C)C(=O)C(C)C(OC2OC(C)CC(N(C)C)C2O)C(C)(OC(=O)OCC=Cc2ccc(-c3cccs3)cc2)CC(C)C(=O)C(C)C2NC(=O)OC12C (stereo not shown) [Compound 50]	1 (≈ 1.19 µM)	0.5 (≈ 0.595 µM)	0.06 µg/mL (≈ 0.0713 µM)	2 (≈ 2.38 µM)
CCC1OC(=O)C(C)C(=O)C(C)C(OC2OC(C)CC(N(C)C)C2O)C(C)(OC(=O)OCC=Cc2ccc(-c3nnco3)cc2)CC(C)C(=O)C(C)C2NC(=O)OC12C (stereo not shown) [Compound 52]	0.12 (≈ 0.145 µM)	0.06 (≈ 0.0726 µM)	≦0.015 μg/mL	1 (≈ 1.21 µM)
CCC1OC(=O)C(C)C(=O)C(C)C(OC2OC(C)CC(N(C)C)C2O)C(C)(OC(=O)OCC=Cc2nc3ccccc3n2C)CC(C)C(=O)C(C)C2NC(=O)OC12C (stereo not shown) [Compound 55]	0.25 (≈ 0.308 µM)	0.12 (≈ 0.148 µM)	0.03 µg/mL (≈ 0.0369 µM)	1 (≈ 1.23 µM)
CCC1OC(=O)C(C)C(=O)C(C)C(OC2OC(C)CC(N(C)C)C2O)C(C)(OC(=O)OCC=Cc2ccc(-c3ncc(Br)cn3)cc2)CC(C)C(=O)C(C)C2NC(=O)OC12C (stereo not shown) [Compound 56]	0.5 (≈ 0.546 µM)	0.25 (≈ 0.273 µM)	0.06 µg/mL (≈ 0.0655 µM)	2 (≈ 2.18 µM)
